Laboratory results: BindingDB's records for doi:10.1021/jm030817d (Glaxosmithkline Pharmaceuticals, 2003)

Biological target: D(3) dopamine receptor (Homo sapiens, UniProt P35462)
Experiment: Binding affinity against human Dopamine receptor D3 expressed in CHO cells by using [125I]iodosulpiride as radioligand

Sequence of D(3) dopamine receptor (P35462 as listed by the source): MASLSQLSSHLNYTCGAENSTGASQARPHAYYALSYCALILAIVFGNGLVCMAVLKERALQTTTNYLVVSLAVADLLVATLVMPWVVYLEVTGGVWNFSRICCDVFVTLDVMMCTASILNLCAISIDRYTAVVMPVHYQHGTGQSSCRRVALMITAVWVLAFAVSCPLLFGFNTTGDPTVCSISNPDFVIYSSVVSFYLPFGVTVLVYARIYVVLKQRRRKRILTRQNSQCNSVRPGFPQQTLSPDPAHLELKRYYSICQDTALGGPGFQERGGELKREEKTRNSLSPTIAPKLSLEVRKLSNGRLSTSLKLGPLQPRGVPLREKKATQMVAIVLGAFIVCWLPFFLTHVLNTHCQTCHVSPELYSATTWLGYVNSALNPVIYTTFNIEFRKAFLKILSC

Ki [nM] | SMILES
1.3 | COc1ccccc1C=CC(=O)N[C@H]1CC[C@H](CCN2CCc3ccc(OS(C)(=O)=O)cc3CC2)CC1
1.3 | CS(=O)(=O)c1ccc2c(c1)CCN(CC[C@H]1CC[C@H](NC(=O)C=Cc3ccccc3F)CC1)CC2
1.3 | CS(=O)(=O)Oc1ccc2c(c1)CCN(CC[C@H]1CC[C@H](NC(=O)C=Cc3ccccc3F)CC1)CC2
1.3 | CS(=O)(=O)Oc1ccc2c(c1)CCN(CC[C@H]1CC[C@H](NC(=O)C=Cc3cccc(F)c3)CC1)CC2
